Test results published in paper PMC9719519, “Non-classical ferroptosis inhibition by a small molecule targeting PHB2” (Nature Communications, 2022).

Columns and labels:
Test in all cases: biochemical
Parameters in all cases: Eurofins recombinant human kinase profiling, remaining kinase activity as % of control, 10 uM ATP
Details in all cases: ATP 10 uM; read-out: %Ctrl@10 μM
ACTR2(h) = target: T1, ACTR2(h) (Homo sapiens, UniProt P27037)
T1 construct: gene ACVR2A
Method in brief: (§1)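 Activity measured in a commercial panel of 401 recombinant human protein kinases run as a kinase profiling service.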

ALK(h) = ALK(h) (Homo sapiens, UniProt Q9UM73)
Method in brief: as §1

AMPKα1(h) = target: T2, AMPKα1(h) (Homo sapiens, UniProt Q13131)
T2 construct: gene PRKAA1
Method in brief: as §1

CDK3/cyclinE(h) = CDK3/cyclinE(h) (Homo sapiens, UniProt Q00526)
Method in brief: as §1

DCAMKL3(h) = target: T3, DCAMKL3(h) (Homo sapiens, UniProt Q9C098)
T3 construct: gene DCLK3
Method in brief: as §1

EphA7(h) = EphA7(h) (Homo sapiens, UniProt Q15375)
Method in brief: as §1

EphA8(h) = EphA8(h) (Homo sapiens, UniProt P29322)
Method in brief: as §1

EphB2(h) = EphB2(h) (Homo sapiens, UniProt P29323)
Method in brief: as §1

Flt1(h) = Flt1(h) (Homo sapiens, UniProt P17948)
Method in brief: as §1

GCK(h) = target: T4, GCK(h) (Homo sapiens, UniProt Q12851)
T4 construct: gene MAP4K2
Method in brief: as §1

MAP4K5(h) = MAP4K5(h) (Homo sapiens, UniProt Q9Y4K4)
Method in brief: as §1

MEK1(h) = target: T5, MEK1(h) (Homo sapiens, UniProt Q02750)
T5 construct: gene MAP2K1
Method in brief: as §1

MEK2(h) = target: T6, MEK2(h) (Homo sapiens, UniProt P36507)
T6 construct: gene MAP2K2
Method in brief: as §1

MRCKα(h) = target: T7, MRCKα(h) (Homo sapiens, UniProt Q5VT25)
T7 construct: gene CDC42BPA
Method in brief: as §1

PAK1(h) = PAK1(h) (Homo sapiens, UniProt Q13153)
Method in brief: as §1

PAK2(h) = PAK2(h) (Homo sapiens, UniProt Q13177)
Method in brief: as §1

PAR-1Bα(h) = target: T8, PAR-1Bα(h) (Homo sapiens, UniProt Q7KZI7)
T8 construct: gene MARK2
Method in brief: as §1

RIPK1(h) = RIPK1(h) (Homo sapiens, UniProt Q13546)
Method in brief: as §1

RIPK2(h) = RIPK2(h) (Homo sapiens, UniProt O43353)
Method in brief: as §1

Ros(h) = target: T9, Ros(h) (Homo sapiens, UniProt P08922)
T9 construct: gene ROS1
Method in brief: as §1

SAPK2a(T106M)(h) = target: T10, SAPK2a(T106M)(h) (Homo sapiens, UniProt Q16539, T106M)
T10 construct: gene MAPK14
Method in brief: as §1

Syk(h) = Syk(h) (Homo sapiens, UniProt P43405)
Method in brief: as §1

VRK1(h) = VRK1(h) (Homo sapiens, UniProt Q99986)
Method in brief: as §1

EphA7(h), sequence (Q15375 whole entry): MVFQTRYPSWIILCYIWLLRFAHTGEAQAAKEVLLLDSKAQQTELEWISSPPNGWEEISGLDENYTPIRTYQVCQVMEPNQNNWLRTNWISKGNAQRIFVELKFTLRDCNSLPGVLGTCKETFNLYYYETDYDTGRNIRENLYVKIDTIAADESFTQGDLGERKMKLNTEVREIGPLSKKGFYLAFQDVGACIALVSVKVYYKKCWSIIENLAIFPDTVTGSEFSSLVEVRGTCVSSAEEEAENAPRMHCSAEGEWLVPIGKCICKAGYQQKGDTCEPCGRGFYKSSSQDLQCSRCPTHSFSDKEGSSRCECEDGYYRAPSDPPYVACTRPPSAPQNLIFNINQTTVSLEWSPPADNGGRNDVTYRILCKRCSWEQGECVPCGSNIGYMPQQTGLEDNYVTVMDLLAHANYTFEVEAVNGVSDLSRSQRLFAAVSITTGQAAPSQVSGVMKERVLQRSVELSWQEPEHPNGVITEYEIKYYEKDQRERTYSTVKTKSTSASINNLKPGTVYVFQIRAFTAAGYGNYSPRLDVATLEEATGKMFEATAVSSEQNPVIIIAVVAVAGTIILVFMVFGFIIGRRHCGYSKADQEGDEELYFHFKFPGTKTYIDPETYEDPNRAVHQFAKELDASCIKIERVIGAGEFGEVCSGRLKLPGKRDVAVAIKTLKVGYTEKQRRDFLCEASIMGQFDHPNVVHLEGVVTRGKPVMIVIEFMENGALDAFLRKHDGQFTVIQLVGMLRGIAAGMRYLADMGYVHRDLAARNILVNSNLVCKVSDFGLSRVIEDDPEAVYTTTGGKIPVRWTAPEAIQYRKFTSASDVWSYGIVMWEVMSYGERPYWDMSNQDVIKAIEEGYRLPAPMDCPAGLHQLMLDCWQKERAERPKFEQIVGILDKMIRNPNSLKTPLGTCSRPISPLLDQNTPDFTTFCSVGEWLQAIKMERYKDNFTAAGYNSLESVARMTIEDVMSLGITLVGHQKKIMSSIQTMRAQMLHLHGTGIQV
T3 sequence (Q9C098 whole entry): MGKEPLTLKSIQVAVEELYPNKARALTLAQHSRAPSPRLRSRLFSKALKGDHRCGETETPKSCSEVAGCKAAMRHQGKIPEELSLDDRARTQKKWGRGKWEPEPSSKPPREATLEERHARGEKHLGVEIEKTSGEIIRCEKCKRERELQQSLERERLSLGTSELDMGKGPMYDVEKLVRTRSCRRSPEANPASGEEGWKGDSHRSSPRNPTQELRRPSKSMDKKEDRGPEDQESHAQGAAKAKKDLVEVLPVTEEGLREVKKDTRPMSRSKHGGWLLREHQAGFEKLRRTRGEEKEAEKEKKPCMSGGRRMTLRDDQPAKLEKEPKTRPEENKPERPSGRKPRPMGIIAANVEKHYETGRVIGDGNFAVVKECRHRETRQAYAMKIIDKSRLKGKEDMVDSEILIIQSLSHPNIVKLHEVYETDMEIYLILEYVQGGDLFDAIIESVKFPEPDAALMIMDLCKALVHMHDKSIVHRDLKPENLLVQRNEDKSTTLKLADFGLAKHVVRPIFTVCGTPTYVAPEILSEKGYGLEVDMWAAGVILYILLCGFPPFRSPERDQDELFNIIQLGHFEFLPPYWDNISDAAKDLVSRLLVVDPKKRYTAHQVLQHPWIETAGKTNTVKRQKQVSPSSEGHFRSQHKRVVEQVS
Flt1(h), sequence (P17948 whole entry): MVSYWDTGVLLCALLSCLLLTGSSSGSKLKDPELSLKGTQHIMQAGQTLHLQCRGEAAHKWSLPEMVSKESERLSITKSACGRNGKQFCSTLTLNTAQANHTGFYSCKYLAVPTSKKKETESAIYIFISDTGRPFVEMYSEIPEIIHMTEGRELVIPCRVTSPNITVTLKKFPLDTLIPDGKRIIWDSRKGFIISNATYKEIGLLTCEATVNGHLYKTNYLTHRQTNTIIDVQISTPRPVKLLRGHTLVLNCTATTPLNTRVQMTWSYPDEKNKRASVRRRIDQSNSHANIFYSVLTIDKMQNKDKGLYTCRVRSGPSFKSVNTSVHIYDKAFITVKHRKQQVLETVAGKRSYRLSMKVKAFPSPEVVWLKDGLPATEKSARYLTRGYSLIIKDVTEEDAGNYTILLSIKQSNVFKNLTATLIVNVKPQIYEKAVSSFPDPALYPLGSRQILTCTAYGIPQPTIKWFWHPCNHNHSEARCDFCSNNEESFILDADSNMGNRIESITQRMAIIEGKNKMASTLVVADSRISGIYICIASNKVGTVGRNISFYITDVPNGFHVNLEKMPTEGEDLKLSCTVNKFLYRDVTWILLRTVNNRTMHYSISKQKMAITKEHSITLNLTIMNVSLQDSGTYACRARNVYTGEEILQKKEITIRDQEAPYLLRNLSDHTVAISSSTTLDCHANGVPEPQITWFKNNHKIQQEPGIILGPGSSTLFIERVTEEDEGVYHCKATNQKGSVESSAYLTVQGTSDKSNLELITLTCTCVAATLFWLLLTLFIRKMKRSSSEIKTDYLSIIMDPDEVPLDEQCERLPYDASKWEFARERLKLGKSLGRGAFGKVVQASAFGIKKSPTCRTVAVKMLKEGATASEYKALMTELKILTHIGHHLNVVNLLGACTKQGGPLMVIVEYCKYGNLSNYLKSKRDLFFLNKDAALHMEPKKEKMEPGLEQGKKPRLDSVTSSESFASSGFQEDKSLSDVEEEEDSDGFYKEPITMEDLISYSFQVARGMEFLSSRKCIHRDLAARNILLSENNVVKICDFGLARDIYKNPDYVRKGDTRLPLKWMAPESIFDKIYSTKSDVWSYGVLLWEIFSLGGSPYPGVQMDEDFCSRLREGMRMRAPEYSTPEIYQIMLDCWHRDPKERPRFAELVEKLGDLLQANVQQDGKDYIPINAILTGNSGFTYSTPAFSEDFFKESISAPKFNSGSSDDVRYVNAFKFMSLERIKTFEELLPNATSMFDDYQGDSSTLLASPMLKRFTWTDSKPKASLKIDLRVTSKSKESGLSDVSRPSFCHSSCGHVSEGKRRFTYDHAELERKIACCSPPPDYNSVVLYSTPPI
T2 sequence (Q13131 whole entry): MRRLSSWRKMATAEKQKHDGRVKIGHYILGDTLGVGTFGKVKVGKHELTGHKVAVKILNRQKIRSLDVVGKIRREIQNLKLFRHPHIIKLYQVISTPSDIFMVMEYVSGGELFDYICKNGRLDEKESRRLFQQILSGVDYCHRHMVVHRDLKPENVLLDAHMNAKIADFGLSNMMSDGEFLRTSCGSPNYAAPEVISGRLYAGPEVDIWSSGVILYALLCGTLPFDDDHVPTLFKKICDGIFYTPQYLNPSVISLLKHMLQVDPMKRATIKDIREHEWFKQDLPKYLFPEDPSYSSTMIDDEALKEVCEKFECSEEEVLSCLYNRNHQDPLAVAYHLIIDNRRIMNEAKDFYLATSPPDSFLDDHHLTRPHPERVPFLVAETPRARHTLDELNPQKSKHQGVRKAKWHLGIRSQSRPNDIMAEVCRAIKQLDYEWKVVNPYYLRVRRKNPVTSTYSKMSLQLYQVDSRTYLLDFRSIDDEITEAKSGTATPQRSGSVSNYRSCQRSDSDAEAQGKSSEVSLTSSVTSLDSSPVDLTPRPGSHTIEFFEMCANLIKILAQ
T2 sequence (P54619 whole entry partner): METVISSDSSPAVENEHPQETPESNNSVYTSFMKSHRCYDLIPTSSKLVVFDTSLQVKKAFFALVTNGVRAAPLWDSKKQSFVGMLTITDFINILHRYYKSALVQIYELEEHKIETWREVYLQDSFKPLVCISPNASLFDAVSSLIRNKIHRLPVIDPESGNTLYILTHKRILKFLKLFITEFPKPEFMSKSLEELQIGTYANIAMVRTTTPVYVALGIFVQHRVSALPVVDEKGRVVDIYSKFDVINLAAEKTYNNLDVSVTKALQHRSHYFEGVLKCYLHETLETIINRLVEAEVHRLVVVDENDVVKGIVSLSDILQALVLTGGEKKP
T2 sequence (Q9Y478 whole entry partner): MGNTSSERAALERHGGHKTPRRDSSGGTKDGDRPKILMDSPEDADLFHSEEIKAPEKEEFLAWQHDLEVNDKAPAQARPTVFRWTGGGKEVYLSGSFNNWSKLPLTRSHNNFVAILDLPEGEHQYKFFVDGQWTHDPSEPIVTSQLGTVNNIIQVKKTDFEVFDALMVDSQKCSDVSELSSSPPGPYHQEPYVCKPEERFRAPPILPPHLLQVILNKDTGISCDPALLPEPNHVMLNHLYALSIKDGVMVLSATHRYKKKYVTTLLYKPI
PAK1(h), sequence (Q13153 whole entry): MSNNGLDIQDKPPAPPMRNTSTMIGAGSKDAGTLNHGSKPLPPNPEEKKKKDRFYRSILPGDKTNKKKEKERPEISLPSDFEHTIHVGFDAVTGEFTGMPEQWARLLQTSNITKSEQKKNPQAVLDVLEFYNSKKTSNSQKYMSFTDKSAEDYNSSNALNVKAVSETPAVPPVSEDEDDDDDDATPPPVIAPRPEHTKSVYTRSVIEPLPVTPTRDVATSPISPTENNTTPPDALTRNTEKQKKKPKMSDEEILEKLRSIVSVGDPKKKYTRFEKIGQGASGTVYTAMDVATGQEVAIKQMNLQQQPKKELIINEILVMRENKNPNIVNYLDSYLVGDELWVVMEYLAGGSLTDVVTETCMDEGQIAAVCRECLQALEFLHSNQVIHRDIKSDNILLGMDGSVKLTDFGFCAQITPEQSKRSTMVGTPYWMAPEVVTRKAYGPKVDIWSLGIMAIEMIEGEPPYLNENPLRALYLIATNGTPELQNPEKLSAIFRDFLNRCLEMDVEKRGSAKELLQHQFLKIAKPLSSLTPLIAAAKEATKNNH
T10 sequence (Q16539 whole entry T106M): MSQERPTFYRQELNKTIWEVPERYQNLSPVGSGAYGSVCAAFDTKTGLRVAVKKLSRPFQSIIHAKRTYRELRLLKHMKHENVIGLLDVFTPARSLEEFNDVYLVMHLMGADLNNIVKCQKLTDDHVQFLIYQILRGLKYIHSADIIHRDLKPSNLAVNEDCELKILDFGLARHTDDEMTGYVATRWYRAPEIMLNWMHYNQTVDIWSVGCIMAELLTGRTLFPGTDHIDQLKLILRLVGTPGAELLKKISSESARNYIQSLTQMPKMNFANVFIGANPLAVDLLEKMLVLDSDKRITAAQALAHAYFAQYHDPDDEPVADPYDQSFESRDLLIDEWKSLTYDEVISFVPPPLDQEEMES

C1=C(c2nc(-c3cnn(C4CCNCC4)c3)cn3cc(-c4ccccc4)nc23)CCOC1 [YL-939]
remaining activity at 10 µM (ACTR2(h)): 94%
remaining activity at 10 µM (ALK(h)): 106%
remaining activity at 10 µM (AMPKα1(h)): 90%
remaining activity at 10 µM (CDK3/cyclinE(h)): 102%
remaining activity at 10 µM (DCAMKL3(h)): 66%
remaining activity at 10 µM (EphA7(h)): 99%
remaining activity at 10 µM (EphA8(h)): 76%
remaining activity at 10 µM (EphB2(h)): 81%
remaining activity at 10 µM (Flt1(h)): 65%
remaining activity at 10 µM (GCK(h)): 76%
remaining activity at 10 µM (MAP4K5(h)): 76%
remaining activity at 10 µM (MEK1(h)): 109%
remaining activity at 10 µM (MEK2(h)): 89%
remaining activity at 10 µM (MRCKα(h)): 92%
remaining activity at 10 µM (PAK1(h)): 85%
remaining activity at 10 µM (PAK2(h)): 90%
remaining activity at 10 µM (PAR-1Bα(h)): 101%
remaining activity at 10 µM (RIPK1(h)): 106%
remaining activity at 10 µM (RIPK2(h)): 71%
remaining activity at 10 µM (Ros(h)): 97%
remaining activity at 10 µM (SAPK2a(T106M)(h)): 105%
remaining activity at 10 µM (Syk(h)): 62%
remaining activity at 10 µM (VRK1(h)): 87%
